# Measured values as given in patent US12370162B1 (Rplushealth Limited, priority 2024, dated 2025).
# Legend:
# [1] = test system: A431, MCF-7, HeLa, HepG2, PC3, SKOV3, A549, U251, K562, and Caco-2 tumor cells; experiment: Transwell migration assay with serine/glycine at different levels; type: cell-based; settings: low serine level or low glycine level compared to high serine and glycine levels
# [2] = test system: A431, MCF-7, HeLa, HepG2, PC3, SKOV3, A549, U251, K562, and Caco-2 tumor cells; experiment: MTT assay, tumor cell growth with serine/glycine at different levels; type: cell-based; settings: low serine level or low glycine level compared to high serine and glycine levels; 48 hours culture
Structure (SMILES),"migration capability (Transwell, metastasis %) [1]","cell growth (MTT, growth %) [2]"
N[C@@H](CO)C(=O)O [serine],relatively high migration capability,grew slowly
NCC(=O)O [glycine],relatively high migration capability,grew slowly
